Results taken from patent US8722015B2, “Compositions and methods for treatment of angiogenesis-associated ocular disorders” (The Schepens Eye Research Institute, Inc., priority 2010, dated 2014).

Tested on: pathological retinas
Experiment: Staining of pathological and healthy retinas with SH peptide, confocal images
Assay type: binding, rat
Protocol: FIG. 7 is a series of confocal images of pathological (row A) and healthy (row B) retinas stained with either SH peptide alone (left hand column), the SH peptide and IB4, which decorates endothelial cells and activated macrophages/microglia (middle column), or SH peptide, IB4 and DAPI (right hand column). Yellow indicates either endothelial cells or activated macrophages/microglia that are also stained with the SH peptide.
The following series of experiments are performed to assess if the unique peptide insert of the SH phage is sufficient for recognition of pathological retinal vessels. A peptide corresponding to the unique insert and the 4 flanking residues on the N and 2 residues on the C termini (GGACSTEALRHCG; SEQ ID NO: 3) is synthesized. To facilitate labeling of the peptide biotin is added on the N-terminus, thereby allowing for detection of the peptide with the fluorescently labeled avidin. The labeled SH peptide, along with the scrambled version is labeled and used to stain flat mounts of RA (experienced room air instead of the OIR protocol) or OIR retinas as was done in FIG. 4. The staining protocol is optimized to identify the suitable concentration of peptide, incubation and wash conditions. If the peptides used in these experiments include all of the necessary sequence information to selectively recognize the pathological retinal vessels, then the peptides work comparably to the phage, as shown in FIG. 4.
Peptides corresponding to those expressed on the surface of the SH phage, e.g., those with the amino acid sequence STEALRH (SEQ ID NO: 2), recognized pathological retinas much more effectively than healthy retinas.

STEALRH (Protein from peptide library) [SH peptide]
comparison with the entire SH phage (strength of the signal, absence of background) (FIG. 7): superior to the entire SH phage | staining of pathological versus healthy retinas (OIR versus healthy retinas, FIG. 7): stained pathological retinas much more robustly than healthy retinas | recognition of areas without overt pathology (pathological retina, in addition to tufts): recognized areas without overt pathology
